Read-outs that look alike come from different tables or passages of the source.
What was measured:
[1] = test system: Male Sprague-Dawley Rats; assay: Serum clinical chemistries in male Sprague-Dawley rats; type: in vivo
Description: Measurement of Antioxidant Activity and Bioavailability of Compounds of Formula (1) By In Vivo Screening in Male Sprague-Dawley Rats
(§1) A typical experiment consists of 4-6 groups of rats (N=5 per group) with 1 group being a control which receives no MDL compound and the other groups being treated with 0.3% MDL compound. […] Mix the MDL compound with approximately 50 grams of food using a mortar and pestle. This is added to the remainder of the food and mixed for 3 hours on a rotary mixer. In the morning of day 5, anesthetize non-fasted rats with carbon dioxide, and collect blood by cardiac puncture. Sacrifice rats by cervical dislocation. Record body weights and liver weights in grams. Record food consumption as grams·day^-1 ·rat^-1. Deaths are recorded as mortality. Use aliquots of fresh serum for clinical chemistries, thiobarbituric acid reactive substances (TBARS) and conjugated diene measurements. Freeze aliquots of serum (~0.5 mL) and whole livers at -20° C. for compound and metabolite concentration determination at a later time.
Allow blood to clot at room temperature for 30 minutes. Obtain serum after centrifugation for 10 min at 4° C. at 3000 rpm in a Beckman J-6M/E centrifuge with a JS-4.2 rotor. […] Calculate ALP, ALT, and AST as units/L. Calculate cholesterol, triglycerides, and glucose as mg/dL.

[2] = test system: oxidation of serum lipids; assay: TBARS assay (oxidation of serum lipids) in male Sprague-Dawley rats; type: in vivo; conditions: feed or water, 96 h, rat serum, 4 days, N = 5, CuSO4-initiated, 3 hr, read-out: TBARS, percent of control
Description: as §1
In this assay the oxidation of serum lipids is initiated with CuSO4, resulting in the formation of aldehydes, such as malondialdehyde (MDA). Upon incubation with thiobarbituric acid, the absorbance of the aldehydes can be detected at 530-540 nm. […] Measure TBARS as follows: mix 100 μL of serum with 400 μL of a 5 mmol CuSO4 solution and incubate at 37° C. for 3 hr. Stop the reactions by addition of 1.0 mL of 20% trichloroacetic acid. […] Centrifuge samples briefly to pellet undissolved material, and transfer the supernatants to a 96-well microtiter plate. Measure absorbances at 540 nm using a Biotek model EL311 microplate reader. The nmoles of MDA produced are calculated from a standard curve of 0 to 10 nmoles of MDA prepared from malonaldehyde bis(dimethylacetal). Serum samples from treated rats are compared to serum samples from control rats that received no MDL compound.

[3] = Animal parameters (food, body weight, liver weight, mortality) in male Sprague-Dawley rats; type: in vivo; conditions: for mortality at 96 h: po, read-out: mortality (deaths per group); for mortality at 96 h / body wt., percent of control / lw/bw (liver weight/body weight), percent of control: rat
Text: (§2) A typical experiment consists of 4-6 groups of rats (N=5 per group) with 1 group being a control which receives no MDL compound and the other groups being treated with 0.3% MDL compound. Some of the compounds are either repeated at 0.3% or evaluated again at the lower dose of 0.1%. House Male Sprague-Dawley rats, 50-100 g, (Harlan Laboratories, Indianapolis, Ind.) in groups of 5, feeding ad libitum water and Purina Rodent chow (#5002) with or without MDL compound as a dietary admixture for 4 days. Make dietary admixtures (0.3%) by mixing 1.2 grams of an MDL compound with 400 grams of Purina rodent chow (#5002). Mix the MDL compound with approximately 50 grams of food using a mortar and pestle. This is added to the remainder of the food and mixed for 3 hours on a rotary mixer. In the morning of day 5, anesthetize non-fasted rats with carbon dioxide, and collect blood by cardiac puncture. Sacrifice rats by cervical dislocation. Record body weights and liver weights in grams. Record food consumption as grams·day^-1 ·rat^-1. Deaths are recorded as mortality. Use aliquots of fresh serum for clinical chemistries, thiobarbituric acid reactive substances (TBARS) and conjugated diene measurements. Freeze aliquots of serum (~0.5 mL) and whole livers at -20° C. for compound and metabolite concentration determination at a later time.

[4] = HPLC quantitation of compound and metabolite concentration in rat serum and liver; conditions: in vivo; for concentration at 96 h: po, 0.3% in diet, 4 days
Text: as §2
Determine serum and liver concentrations of parent compound and the metabolites, bisphenol and diphenoquinone, by reverse phase HPLC using a Waters 990 Powerline system. Homegenize livers (1 gram samples) with 5.0 mL PBS, pH 7.4, using a Polytron tissue homogenizer at setting 5 for 20-30 seconds. Extract serum or liver homogenates as follows: add 100 μL of either serum or homogenate to 2.0 mL diethyl ether:ethanol (3:1) while vortexing the tube. Cap the sample tubes and centrifuge for 10 min at 5° C. at 3500 rpm in a Beckman GPKR centrifuge with a GH 3.7 rotor. Transfer the supernatants to clean tubes and dry under N2. Reconstitute samples with 200 μL of acetonitrile:hexane:0.1 M ammonium acetate (90:6.5:3.5, by vol.). Then, inject 100 μL onto a Waters Deltapak C18-300 Å column, and elute with an 83% acetonitrile:17% water mobile phase at a flow rate of 1.5 mL/min. Record absorbances at the wavelengths of 240, 254, and 420nm. Calculate compound concentrations from known quantities of authentic parent compounds after correction for recovery. […]. Calculate concentrations as μg/mL of serum and μg/g of liver.

[5] = test system: VCAM-1; conditions: vascular endothelial cells; Mauri, N. et al.; cited from earlier work
[6] = test system: ICAM-1; conditions: vascular endothelial cells; Mauri, N. et al.; cited from earlier work
[7] = rat serum, 0.3% in diet, 4 days, N = 5
[8] = in vivo, 0.3% in diet, 4 days, N = 5
[9] = mean N = 5, read-out: Serum Parent (parent compound concentration)
[10] = mean N = 5, read-out: Liver Parent (parent compound concentration)

SMILES	ALP (alkaline phosphatase), percent of control [1, 7] [%]	ALT (alanine aminotransferase), percent of control [1, 7] [%]	AST (aspartate aminotransferase), percent of control [1, 7] [%]	GLUC (glucose), percent of control ([1]; rat, in vivo) [%]	response vs control in vivo at 0.3 % in diet [2] [%]	food (grams eaten per day per rat), percent of control ([3]; 0.3% in diet, 4 days, N = 5) [%]	mortality at 96 h [3, 8] [%]	body wt., percent of control ([3]; 0.3% in diet, 4 days, N = 5) [%]	Liver Bis (bisphenol concentration) ([4]; 5760 min)	Liver Parent (parent compound concentration) ([4]; 5760 min)	Liver Quin (diphenoquinone concentration) ([4]; 5760 min)	Serum Bis (bisphenol concentration) ([4]; 5760 min)	Serum Quin (diphenoquinone concentration) ([4]; 5760 min)	concentration at 96 h [4, 9] [ng/mL]	food (grams eaten per day per rat), percent of control ([3]; in vivo) [%]	concentration at 96 h [4, 10] [ng/g]	body wt., percent of control ([3]; in vivo) [%]	other results
CC(C)=CCC[C@H](C)CCSc1ccc(O)c(C(C)(C)C)c1 [103,714]	111	120	104	95	21	102	0	103	0	0	0	0	0	2700				
CC(=O)N[C@@H](CS)C(=O)O [N-acetylcysteine]																		inhibition of cytokine-induced expression of VCAM-1 [5]: inhibit cytokine-induced expression of VCAM-1; inhibition of cytokine-induced expression of ICAM-1 [6]: not ICAM-1
CC(C)=CCCC(C)CCSc1cc(C(C)(C)C)c(O)c(C(C)(C)C)c1 (stereo not drawn) [103,960]	125	117		110	24		0	100			0	0	0	8700	105	47300		AST (aspartate aminotransferase), percent of control ([1]; rat, in vivo): 102%; lw/bw (liver weight/body weight), percent of control ([3]; 0.3% in diet, 4 days, N = 5): 130%
CC(C)CCCC(C)CCOc1ccc(O)c(C(C)(C)C)c1 (stereo not drawn) [104,191]	81	149	146	106	20		0		0		0	0	0	6900	76	16100	92	
S=C(S)N1CCCC1 [pyrollidine dithiocarbamate]																		inhibition of cytokine-induced expression of VCAM-1 [5]: inhibit cytokine-induced expression of VCAM-1; inhibition of cytokine-induced expression of ICAM-1 [6]: not ICAM-1
CC(CCCC(C)(C)O)CCSc1cc(C(C)(C)C)c(O)c(C(C)(C)C)c1 (stereo not drawn) [104,487]	137	129	124		87	90	0	95			0	0	0	4100		3800		GLUC (glucose), percent of control [1, 7]: 92%
CC(C)CCCC(C)CCOc1cc(C(C)(C)C)c(O)c(C(C)(C)C)c1 (stereo not drawn) [104,102]		114	82	98	71	92	0	97	0		0	0	0	32800		481000		ALP (alkaline phosphatase), percent of control ([1]; rat, in vivo): 101%
CC(C)=CCC[C@H](C)CCOc1cc(C(C)(C)C)c(O)cc1C(C)(C)C [107,059]			140	96	78		0	95	0	0	0	0	0		95			ALP (alkaline phosphatase), percent of control ([1]; rat, in vivo): 118%; ALT (alanine aminotransferase), percent of control ([1]; rat, in vivo): 116%; lw/bw (liver weight/body weight), percent of control ([3]; 0.3% in diet, 4 days, N = 5): 107%; Serum Parent (parent compound concentration) ([4]; 5760 min): 0
CC(C)=CCC[C@@H](C)CCOc1cc(C(C)(C)C)c(O)c(C(C)(C)C)c1 [104,535]	151	108			11		0		0		0	0	0	16300	95	60300	102	GLUC (glucose), percent of control [1, 7]: 112%; AST (aspartate aminotransferase), percent of control ([1]; rat, in vivo): 94%
CC(C)=CCC[C@H](C)CCOc1ccc(O)c(C(C)(C)C)c1 [103,649]	74	119	82	101	29		0		0	0	0	0	0	1400	95		94	response vs control in vivo at 0.3 % in diet ([1]; Rattus norvegicus, feed or water, 96 h, read-out: TRIG (triglycerides), percent of control): 143%
